According to patent publication US10730895B2, “Carbidopa prodrug” (AbbVie Inc., priority 2014, dated 2020):

Tests used:
[1] = Pharmacokinetic study in rats, individual prodrug IV or SC; format: in vivo, Sprague-Dawley rats; conditions: rat; for AUC: male, Sprague-Dawley, plasma, dose 1.25 mg/kg, L-dopa and carbidopa in aqueous solution, read-out: Carbidopa AUCO-8 h; for Estimated Conversion % (Based on L-dopa AUC): dose 8.5 mg/kg
Description: For comparison, a rat pharmacokinetics study with L-dopa and carbidopa was conducted to help assess the in vivo conversion of the prodrugs. The study design and measured exposures of L-dopa and carbidopa are summarized in Tables 16-A and 16-B, respectively. In brief, groups of three male Sprague-Dawley rats were given (1) L-dopa and carbidopa in aqueous solution, or (2) the individual prodrug in aqueuous solution intravenously or subcutaneously. Blood samples were collected at multiple time points over 24 hours into a collection tube containing NaAsO4, EDTA, and ascorbic acid. […] The supernatants were subjected to LC-MS analysis for quantitation of prodrug, L-dopa or carbidopa.

[2] = Solubility study in water by visual assessment; format: physicochemical; conditions: for solubility: thermodynamic from solid, water, ambient
Description: The L-dopa phosphate prodrugs and the carbidopa phosphate prodrugs were evaluated in a solubility study. The solubility values of the phosphate prodrugs in water under ambient conditions were determined by visual assessment. Table 13-A reports the results of the study, including the measured values for L-dopa and carbidopa.

[3] = Carbidopa diphosphate pharmacokinetics study in mini-pigs; format: in vivo; conditions: for Estimated Conversion % (Based on Carbidopa AUC): mini-pig, SC, dose 8.5 mg/kg
Description: The in vivo conversion of the carbidopa diphosphate to carbidopa was evaluated in a mini-pig pharmacokinetics study in which the prodrug was administered in aqueous solution subcutaneously to a group of three mini-pigs. For comparison, a pharmacokinetics study with carbidopa also was conducted to help assess the in vivo conversion of the carbidopa prodrugs. The estimated in vivo conversion of the carbidopa diphosphate to carbidopa was approximately 100%, based on the carbidopa exposures.

[4] = In vitro bioconversion study, liver S9 fraction (mini-pig); format: in vitro ADME; conditions: mini-pig liver S9 fraction 1 mg/mL
Description: (§1) The in vitro bioconversion of the L-dopa phosphate prodrugs to L-dopa and the carbidopa phosphate prodrugs to carbidopa was evaluated in several studies. In brief, the L-dopa and carbidopa phosphate prodrugs (2.5 ug/mL) were incubated with tissue homogenate or fractions from rats, mini-pigs, or human, including blood, skin homogenate (3 mg/mL), liver microsomes (1 mg/mL), liver S9 fraction (1 mg/mL), kidney S9 fraction (1 mg/mL), and intestine S9 fractions (1 mg/mL). The reaction mixtures were incubated at 37° C. for 5 to 6 time points within 1 to 2 hours. At the end of each time point, the reaction mixtures were quenched by 2 to 3 volumes of 5% trichloroacetic acid in water. After quenching, the mixtures were centrifuged at 3000 rpm for 20 minutes, and the supernatants were analyzed by LC-MS for quantitation of the prodrug, L-dopa or carbidopa. The in vitro bioconversion was assessed by monitoring both time-dependent depletion of the prodrug and the formation of the corresponding L-dopa or carbidopa.

[5] = In vitro bioconversion study, human liver microsomes; format: in vitro ADME; conditions: human liver microsomes 1 mg/mL
Description: as §1

[6] = In vitro bioconversion study, skin homogenates (mini-pig); format: in vitro ADME; conditions: for L-Dopa or Carbidopa Formation: mini-pig skin homogenate; for T1/2 / half-life at 2.5 ug/mL: mini-pig skin homogenate 3 mg/mL, 37° C.; for half-life at 2.5 ug/mL: minipig
Description: (§2) In brief, the L-dopa and carbidopa phosphate prodrugs (2.5 ug/mL) were incubated with tissue homogenate or fractions from rats, mini-pigs, or human, including blood, skin homogenate (3 mg/mL), liver microsomes (1 mg/mL), liver S9 fraction (1 mg/mL), kidney S9 fraction (1 mg/mL), and intestine S9 fractions (1 mg/mL). The reaction mixtures were incubated at 37° C. for 5 to 6 time points within 1 to 2 hours. At the end of each time point, the reaction mixtures were quenched by 2 to 3 volumes of 5% trichloroacetic acid in water. After quenching, the mixtures were centrifuged at 3000 rpm for 20 minutes, and the supernatants were analyzed by LC-MS for quantitation of the prodrug, L-dopa or carbidopa. The in vitro bioconversion was assessed by monitoring both time-dependent depletion of the prodrug and the formation of the corresponding L-dopa or carbidopa.

[7] = In vitro bioconversion study, blood (human); format: in vitro ADME; conditions: for half-life at 2.5 ug/mL / T1/2: prodrug 2.5 ug/mL, 37° C.
Description: as §2

[8] = In vitro bioconversion study, blood (mini-pig); format: in vitro ADME; conditions: for half-life at 2.5 ug/mL: minipig; for half-life at 2.5 ug/mL / T1/2: prodrug 2.5 ug/mL, 37° C.
Description: as §2

[9] = In vitro bioconversion study, skin homogenates (rat); format: in vitro ADME; conditions: for L-Dopa or Carbidopa Formation: rat skin homogenate; for T1/2 / half-life at 2.5 ug/mL: rat skin homogenate 3 mg/mL, 37° C.
Description: as §2

[10] = In vitro bioconversion study, intestinal S9 fractions (rat); format: in vitro ADME; conditions: for L-Dopa or Carbidopa Formation: rat intestinal S9 fraction; for half-life at 2.5 ug/mL: rat intestinal S9 fraction 1 mg/mL
Description: as §1

[11] = In vitro bioconversion study, intestinal S9 fractions (human); format: in vitro ADME; conditions: for L-Dopa or Carbidopa Formation: human intestinal S9 fraction; for half-life at 2.5 ug/mL: human intestinal S9 fraction 1 mg/mL
Description: as §1

[12] = In vitro bioconversion study, liver S9 fraction (rat); format: in vitro ADME; conditions: rat liver S9 fraction 1 mg/mL
Description: as §1

[13] = In vitro bioconversion study, liver S9 fraction (human); format: in vitro ADME; conditions: human liver S9 fraction 1 mg/mL
Description: as §1

[14] = In vitro bioconversion study, kidney S9 fraction (rat); format: in vitro ADME; conditions: rat kidney S9 fraction 1 mg/mL
Description: as §1

[15] = 1-day stability study of individual prodrugs in aqueous solution; format: physicochemical; conditions: aqueous solution 80 μg/mL, ambient storage
Description: The L-dopa phosphate prodrugs and the carbidopa phosphate prodrugs were evaluated in a stability study.

[16] = 1-day stability study, diphosphate combination solution; format: physicochemical; conditions: combined solution L-dopa 3′,4′-diphosphate 35 mg/mL + carbidopa 3′,4′-diphosphate 8.7 mg/mL, pH 6.2, room temperature, nitrogen purged
Description: In addition, a solution combining the diphosphates of each compound (L-dopa 3′, 4′-diphosphate at 35 mg/mL and carbidopa 3′, 4′-diphosphate at 8.7 mg/mL) was monitored over one day at room temperature. This sample was purged with nitrogen to remove oxygen.

[17] = In vitro bioconversion study, blood (rat); format: in vitro ADME; conditions: for half-life at 2.5 ug/mL: prodrug 2.5 ug/mL, 37° C.
Description: as §2

[18] = In vitro bioconversion study, skin homogenates (human); format: in vitro ADME; conditions: for L-Dopa or Carbidopa Formation: human skin homogenate; for T1/2 / half-life at 2.5 ug/mL: human skin homogenate 3 mg/mL, 37° C.
Description: as §1

[19] = In vitro bioconversion study, kidney S9 fraction (human); format: in vitro ADME; conditions: human kidney S9 fraction 1 mg/mL
Description: as §1

[20] = Local tolerability, single SC bolus in rats; format: in vivo; conditions: concentrations up to 125 mg/mL
[21] = mini-pig, 15:1 combination 48/3.2 mg/kg
Description: In this study, the pig received a 16-hour subcutaneous infusion of a combination of the L-dopa 4′-monophosphate and the carbidopa 4′-monophosphate together in an aqueous solution at a dose ratio of 15:1 without an initial bolus dose. The doses were 48/3.2 mg/kg for L-dopa 4′-monophosphate and the carbidopa 4′-monophosphate, respectively.

[22] = format: in vivo, rats; conditions: rat, 4:1 combination, SC bolus 60/14 mg/kg then SC infusion 300/71 mg/kg
Description: After 1.5 hours, the combination was dosed again via continuous infusion at a dose of 300/71 mg/kg over next 14.5 hours. Blood samples were collected at 0, 0.25, 1, 6, 16, and 24 hours post dose. […] FIG. 7 provides a time-concentration profile for L-dopa and L-dopa 4′-monophosphate blood levels after administration of the combination of 4′-monophosphate prodrugs at a 4:1 ratio. […] Steady state concentration of ˜1 μg/mL was maintained over the infusion period for carbidopa. […] FIG. 9 provides a time-concentration profile for carbidopa and carbidopa 4′-monophosphate blood levels after administration of the combination of 4′-monophosphate prodrugs at a 4:1 ratio.

[23] = 7-day stability study, 4′-monophosphate combination solution; format: physicochemical; conditions: combined solution L-dopa 4′-monophosphate 200 mg/mL + carbidopa 4′-monophosphate 50 mg/mL, pH 7.4, room temperature
Description: In addition, a solution combining the L-dopa 4′-monophosphate at 200 mg/mL and carbidopa 4′-monophosphate at 50 mg/mL was monitored over 7 days at room temperature. These samples were prepared with and without purging with nitrogen to remove oxygen.

[24] = listed as 3′,4′-diphosphate prodrug of carbidopa
[25] = listed as diphosphate prodrug of carbidopa

Row | SMILES | stability and L-dopa or carbidopa formation [4] | stability and L-dopa or carbidopa formation [5] | L-Dopa or Carbidopa Formation [6] | T1/2 [6] | L-Dopa or Carbidopa Formation [7] | half-life at 2.5 ug/mL [7] [h] | L-Dopa or Carbidopa Formation [8] | half-life at 2.5 ug/mL [8] [h] | L-Dopa or Carbidopa Formation [9] | L-Dopa or Carbidopa Formation [10] | half-life at 2.5 ug/mL [10] [h] | L-Dopa or Carbidopa Formation [11] | half-life at 2.5 ug/mL [11] [h] | stability and L-dopa or carbidopa formation [12] | stability and L-dopa or carbidopa formation [13] | stability and L-dopa or carbidopa formation [14] | L-Dopa or Carbidopa Formation [17] | half-life at 2.5 ug/mL [17] [h] | L-Dopa or Carbidopa Formation [18] | stability and L-dopa or carbidopa formation [19] | further results
1 | C[C@@](Cc1ccc(O)c(O)c1)(NN)C(=O)O [Carbidopa, (2S)-3-(3,4-dihydroxyphenyl)-2-hydrazino-2-methylpropanoic acid] | – | – | – | – | – | – | – | – | – | – | – | – | – | – | – | – | – | – | – | – | AUC ([1]; IV): 860 ng·h/mL; AUC ([1]; SC): 685 ng·h/mL; solubility ([2]; pH 4-7, crystalline (carbidopa: crystalline monohydrate)): < 4 mg/mL; AUC ([3]; minipig, in vivo, sc, 2 mg/kg): 1610 ng·h/mL
2 | N[C@@H](Cc1ccc(OP(=O)(O)O)c(OP(=O)(O)O)c1)C(=O)O [L-dopa 3′,4′-diphosphate] | stable without formation of L-dopa or carbidopa observed | stable without formation of L-dopa or carbidopa observed | No | stable | Yes | 2.3 | Yes | 2.08 | No | Yes | 0.903 | Yes | 1.53 | stable without formation of L-dopa or carbidopa observed | stable without formation of L-dopa or carbidopa observed | stable without formation of L-dopa or carbidopa observed | Yes | 0.1 | No | stable without formation of L-dopa or carbidopa observed | Estimated Conversion % (Based on L-dopa AUC) ([1]; IV): >100%; Estimated Conversion % (Based on L-dopa AUC) ([1]; SC): >100%; T1/2 [9]: stable; solubility ([2]; pH 5.5, amorphous): > 330 mg/mL; % Remaining After One Day ([15]; pH 7.0): >99%; % Remaining After One Day [16]: >99%; T1/2 [18]: stable; local intolerance (clinical signs, microscopic findings) [20]: no adverse clinical signs or microscopic findings indicative of local intolerance
3 | C[C@@](Cc1ccc(O)c(OP(=O)(O)O)c1)(NN)C(=O)O [Carbidopa 3′-phosphate, Carbidopa 3′-monophosphate] | – | – | Yes | – | Yes | 0.967 | Yes | 0.148 | Yes | – | – | – | – | – | – | – | Yes | 0.342 | Yes | – | half-life at 2.5 ug/mL [6]: 6.88 h; half-life at 2.5 ug/mL [9]: 12.1 h; solubility ([2]; pH 7.1, amorphous): > 96 mg/mL; % Remaining After One Day ([15]; pH 6.5): >94%; half-life at 2.5 ug/mL [18]: 10 h
4 | C[C@@](Cc1ccc(OP(=O)(O)O)c(O)c1)(NN)C(=O)O [Carbidopa 4′-phosphate, Carbidopa 4′-monophosphate] | stable without formation of L-dopa or carbidopa observed | stable without formation of L-dopa or carbidopa observed | Yes | – | Yes | 1.08 | Yes | 0.147 | Yes | Yes | 1.23 | Yes | 0.402 | stable without formation of L-dopa or carbidopa observed | stable without formation of L-dopa or carbidopa observed | stable without formation of L-dopa or carbidopa observed | Yes | 0.248 | Yes | stable without formation of L-dopa or carbidopa observed | half-life at 2.5 ug/mL [6]: 1.9 h; Exposure of the remaining carbidopa 4′-monophosphate, % of the carbidopa exposure [21]: ~22%; half-life at 2.5 ug/mL [9]: 4.52 h; solubility compared to L-dopa and carbidopa ([2]; FIG. 1, pH of 7.4): increased solubility; solubility ([2]; pH 7.4, L-dopa 4′-phosphate crystalline, carbidopa 4′-phosphate amorphous): > 200 mg/mL; % Remaining After One Day ([15]; pH 6.8): >98%; Exposure of the remaining carbidopa 4′-monophosphate, % of carbidopa [22]: ~8%; half-life at 2.5 ug/mL [18]: 2.3 h; % Remaining After 7 Days ([23]; Nitrogen Purged): >99%; % Remaining After 7 Days ([23]; Non-Purged): >97%
5 | C[C@@](Cc1ccc(OP(=O)(O)O)c(OP(=O)(O)O)c1)(NN)C(=O)O [Carbidopa 3′,4′-diphosphate] | stable without formation of L-dopa or carbidopa observed | stable without formation of L-dopa or carbidopa observed | No | stable | No | – | No | – | No | Yes | 1.32 | Yes | 0.525 | stable without formation of L-dopa or carbidopa observed | stable without formation of L-dopa or carbidopa observed | stable without formation of L-dopa or carbidopa observed | Yes | 0.883 | No | stable without formation of L-dopa or carbidopa observed | T1/2 [7, 24]: stable; T1/2 [7, 25]: not dephosphorylated; T1/2 [8, 24]: stable; T1/2 [8, 25]: not dephosphorylated; T1/2 [9]: stable; solubility ([2]; pH 5.5, amorphous): > 247 mg/mL; Estimated Conversion % (Based on Carbidopa AUC) [3, 24]: 100%; Estimated Conversion % (Based on Carbidopa AUC) ([3]; listed as carbidopa diphosphate): approximately 100%; % Remaining After One Day ([15]; pH 6.8): >97%; % Remaining After One Day [16]: >99%; T1/2 [18]: stable
